Assay [1] deals with NOP56-G4 (DNA, G4) GGGCCTGGGCCTGGGCCTGGG
The assay can be described thus: ITC. The note with it: Na+ (1 mM sodium phosphate); pH 7.0, room temperature; 200 µM PDS titrated into 10 µM DNA.

Assay [2] shares this test system. The assay can be described thus: CD spectroscopy. The conditions noted are these: K+ (100 mM KCl), Na+ (1 mM sodium phosphate); pH 7, 25 °C; 20 µM DNA, 20 µM PDS; antiparallel G4 features.
For assay [3] the test system is unchanged. Description: CD melting at 295 nm. The conditions noted are these: Na+ (1 mM sodium phosphate); pH 7; 3 equivalents PDS; Tm 44.8 to 58.8 °C.
Assay [4] has the same test system. Description: solution NMR structure. The conditions noted are these: Na+ (1 mM sodium phosphate); pH 7, 25 °C; 0.5 mM DNA, 1.5 mM PDS; stacks on terminal G-tetrad.
Assay [5] concerns NOP56-G4 template (with annealed Cy5 primer) (DNA, G4) GGGCCTGGGCCTGGGCCTGGGTTTTTTTATAGTGAGTCGTATTA/TAATACGACTCACTATA
Description: DNA polymerase stop assay (Klenow fragment). The conditions noted are these: K+ (100 mM KCl), Na+ (50 mM NaCl), Mg2+ (10 mM MgCl2); 10 mM Tris-HCl pH 7.9, 1 mM DTT, 37 °C; PDS concentration-dependent stalling.

The structures appear in SMILES notation.

One may read the KD as a measure of binding affinity in units of concentration. In assay [1], `NCCOc1cc(C(=O)Nc2cc(OCCN)c3ccccc3n2)nc(C(=O)Nc2cc(OCCN)c3ccccc3n2)c1` yielded a KD of 640 ± 20 nM. For the same molecule, the binding result in assay [2], in assay [4] and in assay [5] was “yes” each time. The Tm increase in assay [3] is ~ 14 °C.

For the origin of these results see paper PMC12021085 (2025).
